Patent US4119724A, “Fungicidal compositions containing phosphorous acid and derivatives thereof” (Pepro, priority 1973, dated 1978)

Tests used:
Pythium de Baryanum = assay: In vitro test on mycelian growth (Agar Plate dilution), Pythium; format: cell-based; settings: 0.25 g/l, 4 days at 20° C
Description: (§1) In vitro Test on Mycelian Growth
(§2) The compounds according to the invention are studied for their effect on the mycelian growth of the following fungi:
(§3) The "Agar Plate dilution" method is used for each test. A mixture of gelose and an acetone solution or a wettable powder containing the material to be tested in a concentration of 0.25 g/l is poured into a Petri dish at a temperature of approximately 50° C.
(§4) The gelose-containing mixture is then allowed to solidify, after which mycelian culture discs of the fungus are placed on it.
(§5) After 4 days at 20° C., the surface area of the inhibition zone observed is evaluated and expressed as a percentage of the inoculated surface area.

Rhizoctonia solani = assay: In vitro test on mycelian growth (Agar Plate dilution), Rhizoctonia; format: cell-based; settings: 0.25 g/l, 4 days at 20° C
Description: as §1, §2
Rhizoctonia solani, responsible for neck canker
as §3, §4, §5

Plasmopara viticola [1] = assay: In vivo test on vine plants, preventive treatment; settings: 0.5 g/l, leaves sprayed 48 hours before contamination, inspected 9 days after infestation
Plasmopara viticola [2] = assay: Systemic test by root absorption on vine mildew; format: in vivo; settings: 0.5 g/l, absorbed by the roots, assessed after about 9 days
Plasmopara viticola [3] = assay: In vivo test on vine plants, treatment after contamination; settings: 1 g/l, inspected 9 days after contamination
Solubility in water = format: physicochemical
Plasmopara viticola [4] = assay: Open-air test on vine stocks; format: in vivo; settings: 2 g/l
Description: Groups of vine stocks (Gamay variety) are treated on the 27th June, 4th, 11th and 18th July, 1st and 7th August, with a spray of wettable powder containing 50% of an active material, namely compound 13 and manganese ethylene-1,2-bis-dithiocarbamate or manebe.
It should be noted that, in August and September, the mildew Plasmopara viticola was extremely virulent on account of heavy rainfall. For a uniform dose of 2 g/l, the results are expressed as percentage protection in relation to a contaminated but untreated control.

Phytophtora cinnamomi = assay: Avocado test; format: in vivo; settings: soil sprayed with 3 g/l solution, after 20 days
Text: Avocado seedlings (variety Persea indica) are planted in a soil infested with Phytophtora cinnamomi, after which the soil is sprayed with a solution containing 3 g/l of ammonium phosphite. Some seedlings are left untreated as controls. Under these conditions, it is found after 20 days that the roots of the controls are completely dead, whilst 90% of the treated seedlings are healthy.

Phytophtora parasitica = assay: Pineapple test; format: in vivo; settings: 0.5 g/l spray 48 hours after contamination, after 30 days
Description: Pineapple seedlings are contaminated with Phytophtora parasitica and then treated after 48 hours by spraying with a solution containing 0.5 g/l of calcium phosphite.

Botrytis cinerea = assay: In vitro test on mycelian growth (Agar Plate dilution), Botrytis; format: cell-based; settings: 0.25 g/l, 4 days at 20° C
Description: as §1, §2
Botrytis cinerea, responsible for grey rot
as §3, §4, §5

Piricularia oryzae = format: cell-based; settings: 0.25 g/l, 4 days at 20° C
[5] = inspection date 2/10 (approx. 2 months after last treatment)
[6] = inspection date 3/9 (approx. 1 month after last treatment)
[7] = inspection date 20/10 (approx. 2.5 months after last treatment)

| Compound | protection (preventive treatment) (Plasmopara viticola [1]) | protection by root absorption (systemic) (Plasmopara viticola [2]) | stop of the development of mildew (treatment after contamination) (Plasmopara viticola [3]) | also measured |
| --- | --- | --- | --- | --- |
| NCCO.O=[PH](O)O [Compound 8, acid monoethanolamine phosphite] | – | – | – | inhibition of mycelian growth (inhibition zone as percentage of the inoculated surface area) (Pythium de Baryanum): 51%; inhibition of mycelian growth (inhibition zone as percentage of the inoculated surface area) (Rhizoctonia solani): 60% |
| O=[PH]([O-])[O-].[Ca+2] [Compound 10, neutral calcium phosphite] | total protection | good protection | – | – |
| O=[PH]([O-])[O-].[Ba+2] [Compound 12, neutral barium phosphite] | total protection | total protection | – | – |
| O=[PH]([O-])[O-].[Zn+2] [Compound 17, neutral zinc(II)phosphite] | total protection | total protection | completely stop the development of mildew | – |
| O=[PH]([O-])[O-].[Mg+2] [Compound 18, neutral magnesium phosphite] | good protection | – | – | – |
| O=[PH]([O-])[O-].O=[PH]([O-])[O-].O=[PH]([O-])[O-].[Al+3].[Al+3] [Compound 19, neutral aluminium phosphite] | total protection | total protection | – | – |
| O=[PH](O)O.c1c[nH]cn1 [Compound 21, acid phosphite of 1,3-imidazole] | good protection | total protection | completely stop the development of mildew | – |
| Nc1ccccc1 [Compound 22] | good protection | total protection | completely stop the development of mildew | solubility in water (Solubility in water): insoluble |
| NC1CCCCC1 [Compound 23] | – | good protection | – | solubility in water (Solubility in water): insoluble |
| C1COCCN1 [Compound 25] | good protection | total protection | completely stop the development of mildew | solubility in water (Solubility in water): insoluble |
| CC(C)c1ccc(N)cc1 [Compound 26] | good protection | – | completely stop the development of mildew | solubility in water (Solubility in water): insoluble |
| CC(C)c1cccc(N)c1 [Compound 27] | good protection | – | – | solubility in water (Solubility in water): insoluble |
| S=C([S-])NCCNC(=S)[S-].[Mn+2] [Manebe, manganese ethylene-1,2-bis-dithiocarbamate, reference compound] | – | – | – | percentage protection in relation to contaminated untreated control (Plasmopara viticola [4]; [5]): 62%; percentage protection in relation to contaminated untreated control (Plasmopara viticola [4]; [6]): 96%; percentage protection in relation to contaminated untreated control (Plasmopara viticola [4]; [7]): 15% |
| N.N.O.O=[P+](O)O [ammonium phosphite] | – | – | – | treated seedlings healthy (Phytophtora cinnamomi): 90% |
| calcium phosphite | – | – | – | inhibition of the fungus in treated seedlings (Phytophtora parasitica): completely inhibited |
| cuprous phosphite [Compound 20] | total protection | – | – | – |
| manganous phosphite [Compound 16] | total protection | – | completely stop the development of mildew | – |
| neutral copper(II)phosphite [Compound 13] | total protection | good protection | – | percentage protection in relation to contaminated untreated control (Plasmopara viticola [4]; [5]): 66%; percentage protection in relation to contaminated untreated control (Plasmopara viticola [4]; [6]): 94%; percentage protection in relation to contaminated untreated control (Plasmopara viticola [4]; [7]): 50% |
| neutral nickel (II)phosphite [Compound 14] | total protection | – | completely stop the development of mildew | inhibition of mycelian growth (inhibition zone as percentage of the inoculated surface area) (Rhizoctonia solani): 78%; inhibition of mycelian growth (inhibition zone as percentage of the inoculated surface area) (Botrytis cinerea): 48%; inhibition of mycelian growth (inhibition zone as percentage of the inoculated surface area) (Piricularia oryzae): 59% |
| trivalent iron phosphite [Compound 15] | good protection | – | – | – |
